Assay [1] relates to IgE antibodies from patients having allergies to each food. The experiment in a line: Confirmation of epitope cross-reactivity by ELISA with N-terminally biotinylated peptides. The assay is classed as binding, human. As to conditions: serum of allergic patient versus nonallergic subject. As for the experimental part:
The binding activity of peptides comprising the amino acid sequences described in the column “Synthesis sequence” and the rightmost column “SEQ ID NO” of Table 3 against IgE antibodies from patients having allergies to each food described in the column “Food with which cross-reactivity was confirmed” in Tables 3-1 to 3-50 was confirmed by ELISA. The peptides were synthesized such that the peptides were N-terminally biotinylated by the Fmoc method.
To be specific, ELISA was carried out according to the following procedure. • (1) The concentrations of the biotinylated peptides were adjusted to 10 μg/mL with PBST (0.1% Tween 20). • (2) Each peptide solution was added at 20 μL to each well of a 384-well plate coated with streptavidin, and shaken at room temperature for one hour. After collection of the solution, the wells were washed with PBS five times. • (3) Pierce Protein-Free (PBS) Blocking Buffer (produced by Thermo) was added at 40 μL thereto and shaken at room temperature for one hour. After removal of the solution, the wells were washed with PBST five times. • (4) 2% serum/Canget SignalSolution I (produced by TOYOBO) was added at 20 μL thereto and shaken at room temperature for one hour. After removal of the solution, the wells were washed with PBST five times. • (5) A diluted secondary antibody solution (1:10000, Canget SignalSolution II (produced by TOYOBO)) was added at 20 μL thereto and shaken at room temperature for one hour. After removal of the solution, the wells were washed with PBST five times. • (6) 1-Step Ultra TMB-ELISA (produced by Thermo) was added at 20 μL thereto and shaken at room temperature for 15 minutes. • (7) 2 M H2SO4 was added at 20 μL thereto. Absorbance at 450 nm was measured.
Peptides having these amino acid sequences were prepared by the same procedure as described in Example 4(A), and the presence or absence of binding thereto of IgE antibodies present in the serum of an allergic patient and the serum of a nonallergic subject was measured. The serum of two nonallergic subjects was measured, and values obtained by dividing the measurement values by an average value thereof were described.
The ordinate of each figure depicts “absorbance of the allergic patient/absorbance of the nonallergic patient (healthy subject)”. Different contrasts of two bar graphs for the same sequences mean separate patients. For example, graph No. 8 and No. 10 in FIG. 7 are results about different patients as to peptides having the same sequences. The names of the cooking ingredients described in each graph are the names of cooking ingredients containing a polypeptide comprising an amino acid sequence serving as the basis of each synthetic sequence used.
A general note: ELISA stands for enzyme-linked immunosorbent assay.

Assay [2] relates to IgE antibody present in the serum of a shrimp-allergic patient. Put plainly: Epitope mapping (1): array of overlapping 15-amino-acid peptides, chemiluminescence. To be noted: 15-amino-acid peptide array; serum of 37 patients; difference from N2nd value of 5 non-shrimp-allergic subjects at least 35,000. The format is binding, human. The protocol:
Epitope mapping was carried out using a library of overlapping peptides (length: 15 amino acids) corresponding to the amino acid sequences identified as allergy components of shrimp and the amino acid sequence of arginine kinase. Specifically, the library of overlapping peptides was prepared on the basis of the amino acid sequences of SEQ ID NOs: 117, 141, 146, 2, 45, 87, 276, 161, 230, 179, 362, 381, 399, 421, 455, 481, 486, 520, 541, 300 and 306, and arginine kinase.
The peptides to be synthesized were shifted by 10 amino acids.
For preparation of peptide arrays, the Intavis CelluSpots™ technique was used. Specifically, the peptide arrays were prepared by the following procedure: (1) synthesizing peptides of interest on amino-modified cellulose disks using an automated chemical synthesis apparatus (Intavis MultiPep RS), (2) dissolving the amino-modified cellulose disks to obtain a cellulose-bound peptide solution, and (3) spotting the cellulose-bound peptides onto coated glass slides. The details of each procedure are as described below.
Peptide synthesis was carried out in incremental steps through 9-fluorenylmethoxycarbonyl (Fmoc) chemical reaction on amino-modified cellulose disks in 384-well synthesis plates. Specifically, amino acids in which a Fmoc group is bonded to an amino group were activated in a solution of N,N′-diisopropylcarbodiimide (DIC) and 1-hydroxybenzotriazole (HOBt) in dimethylformamide (DMF) and added dropwise to the cellulose disks so that the Fmoc group-bound amino acids were bound to the amino groups on the cellulose disks (coupling). Unreacted amino groups were capped with acetic anhydride and washed with DMF. Furthermore, the Fmoc groups were eliminated from the amino groups of the amino acids bound to the amino groups on the cellulose disks by treatment with piperidine and washing with DMF. The amino acids bound to the amino groups on the cellulose disks were repetitively subjected to the coupling, the capping, and the Fmoc group elimination described above to elongate the amino terminus for peptide synthesis.
The peptides-bound cellulose disks of interest obtained above in the subsection titled “(1) Synthesis of peptide” were transferred to 96-well plates and treated with a side chain deprotection mixed solution of trifluoroacetic acid (TFA), dichloromethane, triisopropylsilane (TIPS), and water for deprotection of amino acid side chains. Then, the deprotected cellulose-bound peptides were dissolved in a mixed solution of TFA, trifluoromethanesulfonic acid (TFMSA), TIPS, and water and precipitated in tetrabutyl methyl ether (TBME), and the precipitate was resuspended in dimethyl sulfoxide (DMSO) and mixed with a mixed solution of NaCl, sodium citrate, and water to obtain a peptide solution for slide spotting.
The peptide solution for slide spotting obtained above in the subsection titled “(2) Dissolution of amino-modified cellulose disk” was spotted onto Intavis CelluSpots™ slides using Intavis Slide Spotting Robot, and the slides were dried to prepare peptide arrays.
The presence or absence of binding, to each peptide fragment, of an IgE antibody present in the serum of a shrimp-allergic patient was measured through antigen-antibody reaction using the peptide arrays. […]

Experimental findings from patent publication US20260263593A1, “ALLERGY ANTIGEN AND EPITOPE THEREOF” (HOYU CO., LTD., priority 2018, published 2026) are described below.

For “SEQ ID NO: 587: polypeptide consisting of 4 amino acid residues, epitope sequence of polypeptide (E4) (ELEE; VAR_SEQ 1..4 epitope)”, the Epitope cross-reactivity result in assay [1] is recorded as “confirmed in many samples”.
The same measure, in the same setting: the value for “SEQ ID NO: 595: polypeptide consisting of 4 amino acid residues, epitope sequence of polypeptide (E5) (MEEL; VAR_SEQ 1..4 epitope)” was “confirmed in many samples”.
On the same count and under the same terms, the value for “SEQ ID NO: 662: polypeptide consisting of 4 amino acid residues, epitope sequence of polypeptide (E11) (NAKR; VAR_SEQ 1..4 epitope)” was “confirmed in many samples”; that for “SEQ ID NO: 593: polypeptide consisting of 4 amino acid residues, epitope sequence of polypeptide (E4) (TLLEPE; VAR_SEQ 1..6 epitope)” was “confirmed in many samples”.
Consider “SEQ ID NO: 655: polypeptide consisting of 4 amino acid residues, epitope sequence of polypeptide (E11) (KNAK; VAR_SEQ 1..4 epitope)”, for which, in assay [1], the Epitope cross-reactivity entry is listed as “confirmed in many samples”.
Consider “E32: common 15-residue IgE-binding epitope sequence of polypeptide (E32), myosin heavy chain type 1-derived (INELEIALDHANKAN; VAR_SEQ 1..15 epitope) [Epitope E32]”, for which, in assay [2], the “Peptide bound to an IgE antibody in serum in a patient-specific manner” value is given as “bound to an IgE antibody in serum in a patient-specific manner”.
The same measure, in the same setting: under “E20: common 15-residue IgE-binding epitope sequence of polypeptide (E20), mitochondrial ATP synthase subunit alpha precursor-derived (PESDAKLKQIVTDFL; VAR_SEQ 1..15 epitope) [Epitope E20]” stands “bound to an IgE antibody in serum in a patient-specific manner”; under “E2: common 15-residue IgE-binding epitope sequence of polypeptide (E2), myosin heavy chain type 1-derived (ARVISQSPAERGYHI; VAR_SEQ 1..15 epitope) [Epitope E2]”, “bound to an IgE antibody in serum in a patient-specific manner”; under “E4: common 15-residue IgE-binding epitope sequence of polypeptide (E4), myosin heavy chain type 1-derived (HGELEESRTLLEQSD; VAR_SEQ 1..15 epitope) [Epitope E4]”, “bound to an IgE antibody in serum in a patient-specific manner”.
On to “SEQ ID NO: 636: polypeptide consisting of 4 amino acid residues, epitope sequence of polypeptide (E9) (SQKE; VAR_SEQ 1..4 epitope)”, for which the Epitope cross-reactivity result in assay [1] is listed as “confirmed in many samples”.
